Results taken from patent US20040192617A1, “Process for preparing phenolic acid salts of gabapentin” (priority 2003, published 2004).
Like-named read-outs stand apart in the source and are kept apart here.

Assays:
[1] = Solubility of the tannate salt, seen as precipitation from the reaction solution; assay type: physicochemical; conditions: water/ethanol mixture, room temperature; salt precipitates from solution
Description: The completeness of the reaction and the formation of the tannate salt were followed by taking samples at different stages of the conversion process. Due to the large size of the tannate salt, it usually precipitates from solution upon formation. The absence or loss of gabapentin from solution is correlated with the formation of the tannate salt.
The conversion process used in this example to synthesize the tannate salt of gabapentin is done at room temperature as follows: 250 ml of purified water and 50 ml of ethanol are placed in a beaker. While mixing the water/ethanol mixture, tannic acid is added and mixing is continued to form a solution. While mixing the tannic acid solution, gabapentin powder is added slowly. The gabapentin reacts with the tannic acid to form the tannate salt. […] The ratio of tannic acid to gabapentin used is 0.8:1.

[2] = in water and across a wide range of pH; cited from earlier work

| Compound | solubility [1] | solubility [2] |
| --- | --- | --- |
| gabapentin tannate | low solubility | – |
| NCC1(CC(=O)O)CCCCC1 [Gabapentin, 1-(aminomethyl) cyclohexaneacetic acid] | – | freely soluble |
